Source: patent US4004029A, “Compositions and method for treating epilepsy and convulsions” (The Upjohn Company, priority 1975, dated 1977)

Assays:
[1] = tested on: electroshock-induced seizures (tonic extensor seizures); assay: Protection against electroshock-induced seizures in mice; assay type: in vivo, mice (Cartworth farms, male albino); details: for ED50: 25 milliamps
Text: Med. Chem. 8, 5-8, (1965). […] […] The number of mice protected against tonic extensor seizures is used as a quantal response to calculate the Ed50, by the method of Spearman and […] (see D. J. Finney, "Statistical Methodology in Biological Assay", Hofner Publishing Co., New York, N.Y. 1952, page 524). For control purposes, a group of six mice is similarly treated with diphenylhydantoin and shocked.

[2] = tested on: seizures induced by electroshock; assay: Protection against seizures induced by electroshock in rats; assay type: in vivo, rats (Sprague Dawley male albino); details: for ED50: Rattus norvegicus, ip, 150 milliamps
Text: After about thirty minutes, the mice are shocked via ear clip electrodes, with a 60-cycle electrical current for 0.2 second, using a current intensity of 25 milliamps. The number of mice protected against tonic extensor seizures is used as a quantal response to calculate the Ed50, by the method of Spearman and […] (see D. J. Finney, "Statistical Methodology in Biological Assay", Hofner Publishing Co., New York, N.Y. 1952, page 524). For control purposes, a group of six mice is similarly treated with diphenylhydantoin and shocked. […] Protection against seizures induced by electroshock is also shown in rats (Sprague Dawley male albino rats weighting 150 to 300 grams each). The testing procedure is identical to that used in Example 9 supra. except that the electroshock current intensity is increased from 25 to 150 milliamps to accommodate this larger species.

[3] = tested on: electrically induced afterdischarge; assay: Depression of electrically induced afterdischarges in the cat; assay type: in vivo, cat (mongrel cats of either sex); set-up: duration of afterdischarge: unit not given here; details: for duration of afterdischarge: intravenous
Text: N. Strow and C. L. Mitchell, Electroenceph. […] Mongrel cats of either sex weighing 1.5-3.0 kg. are anesthetized with halothane. Two pair of stainless steel screw electrodes are placed bilaterally in the skull for stimulation and recording. The cats are paralyzed with decamethonium, artifically respired and after ninety minutes allowed to blow off the halothane. […] is elicited by electrical stimulation across one pair of electrodes (5 second train of 1 millisecond pulses at 50 pulses per second at 5.0-10 milliamps). Duration of discharge is recorded from the second electrode pair. Two groups of controls are taken before test drug administration and duration of […] measured after each dose of test drug.

in vivo = details: mouse, ip
[4] = Mus musculus, ip, 0.5 h, absorption time 0.5 (Minutes)

Cc1cccc(C(=O)Nc2c(C)cccc2C)c1N [N'-(2,6-dimethylphenyl)-2-amino-3-methylbenzamide]
ED50 ([1]; IP, absorption time 0.5 (Minutes), 0.5 min): 5.6 mg/kg | ED50 [1, 4]: 7 mg/kg | ED50 ([1]; Mus musculus, po, 1 min, absorption time 1 (Minutes)): 10 mg/kg | ED50 ([1]; Mus musculus, po, 2 min, absorption time 2 (Minutes)): 10 mg/kg | ED50 ([1]; Mus musculus, po, 4 min, absorption time 4 (Minutes)): 11 mg/kg | ED50 ([1]; Mus musculus, po, 8 min, absorption time 8 (Minutes)): 32 mg/kg | ED50 ([1]; Mus musculus, po, 16 min, absorption time 16 (Minutes)): 112 mg/kg | ED50 ([1]; Mus musculus, po, 0.4 h, absorption time 24 (Minutes)): 178 mg/kg | ED50 ([1]; Mus musculus, po, 0.5 h, absorption time 0.5 (Minutes)): 10 mg/kg | duration of action ([1]; electroshock, Table I): long acting | ED50 ([2]; 0.5 h, absorption time 30 min): 4.5 mg/kg | ED50 ([2]; 1 h, absorption time 60 min): 2.5 mg/kg | ED50 ([2]; 4 h, absorption time 240 min): 4.5 mg/kg | ED50 ([2]; 8 h, absorption time 480 min): 7.1 mg/kg | anticonvulsive potency compared with diphenylhydantoin ([2]; electroshock, milligram basis): more potent on a milligram basis than diphenylhydantoin | duration of afterdischarge ([3]; 2.5 mg./kg. total dose): 31 | duration of afterdischarge ([3]; 5.0 mg./kg. total dose): 27 | duration of afterdischarge ([3]; 10.0 mg./kg. total dose): 4 | duration of afterdischarge ([3]; 20.0 mg./kg. total dose): 2 | Relative Potency (shortening of afterdischarge) ([3]; relative to diphenylhydantoin on a milligram basis): 1.42 | LD50 (in vivo): 297 mg/kg

O=C1NC(=O)C(c2ccccc2)(c2ccccc2)N1 [diphenylhydantoin, reference compound]
ED50 [1, 4]: 14 mg/kg | ED50 ([2]; 0.5 h, absorption time 30 min): 8 mg/kg | duration of afterdischarge ([3]; 2.5 mg./kg. total dose): 30 | duration of afterdischarge ([3]; 5.0 mg./kg. total dose): 32 | duration of afterdischarge ([3]; 10.0 mg./kg. total dose): 9 | duration of afterdischarge ([3]; 20.0 mg./kg. total dose): 4
